# Reference: patent US20240368163A1, “COMPOUNDS AND METHODS FOR MODULATING SPLICING” (REMIX THERAPEUTICS INC., priority 2021, published 2024)
# Columns and labels:
# Assay type in all cases: cell-based, human
# HTT [1] = assay: Splicing RT-qPCR assay, HTT mRNA canonical junction (CJ) and alternative junction (AJ); details: Homo sapiens; for AC50: increase in AJ mRNA
# Protocol: (§1) Compounds described herein were used to modulate RNA transcript abundance in cells. The expression of a target mRNA was measured by detecting the formation of an exon-exon junction in the canonical transcript (CJ). A compound mediated exon-inclusion event was detected by observing an increase in formation of a new junction with an alternative exon (AJ). Real-time qPCR assays were used to detect these splicing switches and interrogate the potency of various compounds towards different target genes. A high-throughput real time quantitative PCR (RT-qPCR) assay was developed to measure these two isoforms of the mRNA (CJ and AJ) for exemplary genes, such as HTT, SMN2, and MYB, together with a control housekeeping gene, GAPDH or GUSB or PPIA, used for normalization. Briefly, the A673 or K562 cell line was treated with various compounds described herein (e.g., compounds of Formula (I)). After treatment, the levels of the HTT, MYB, or SMN2 mRNA targets were determined from each sample of cell lysate by cDNA synthesis followed by qPCR.
# (§2) The A673 cell line was cultured in DMEM with 10% FBS. Cells were diluted with full growth media and plated in a 96-well plate (15,000 cells in 100 ul media per well). The plate was incubated at 37° C. with 5% CO2 for 24 hours to allow cells to adhere. An 11-point 3-fold serial dilution of the compounds was made in DMSO then diluted in media in an intermediate plate. Compounds were transferred from the intermediate plate to the cell plate with the top dose at a final concentration of 10 uM in the well. Final DMSO concentration was kept at or below 0.25%. The cell plate was returned to the incubator at 37° C. with 5% CO2 for an additional 24 hours.
# (§3) The K562 cell line was cultured in IMDM with 10% FBS. For K562, cells were diluted with full growth media and plated in either a 96-well plate (50,000 cells in 50 uL media per well) or a 384-well plate (8,000-40,000 cells in 45 uL media per well). An 11-point 3-fold serial dilution of the compounds were made in DMSO then diluted in media in an intermediate plate. Compound was transferred from the intermediate plate to the cell plate with the top dose at a final concentration of 10 uM in the well. Final DMSO concentration was kept at or below 0.25%. Final volume was 100 uL for 96-well plate and 50 uL for 384-well plate. The cell plate was then placed in an incubator at 37° C. with 5% CO2 for 24 hours.
# (§4) The cells were then gently washed with 50 uL-100 uL cold PBS before proceeding to addition of lysis buffer. 30 uL-50 μL of room temperature lysis buffer with DNAse I (and optionally RNAsin) was added to each well. Cells were shaken/mixed thoroughly at room temperature for 5-10 minutes for lysis to take place and then 3 uL-5 μL of room temperature stop solution was added and wells were shaken/mixed again. After 2-5 minutes, the cell lysate plate was transferred to ice for RT-qPCR reaction setup. The lysates could also be frozen at −80° C. for later use.
# (§5) In some cases, a direct lysis buffer was used. An appropriate volume of 3× lysis buffer (10 mM Tris, 150 mM NaCl, 1.5%-2.5% Igepal and 0.1-1 U/uL RNAsin, pH 7.4) was directly added to either K562 or A673 cells in media and mixed by pipetting 3 times. The plates were then incubated at room temperature with shaking/rocking for 20-50 minutes to allow for lysis to take place. After this time, the cell lysate plate was transferred to ice to set up for the RT-qPCR reactions. The lysates could also be frozen at −80° C. for later use.
# (§6) To set up 10 uL RT-qPCR reactions, cell lysates were transferred to 384-well qPCR plates containing the master mix according to the table below. The plates were sealed, gently vortexed, and spun down before the run. The volumes were adjusted accordingly in some instances where the reaction was carried in 20 μL. The table below summarizes the components of the RT-qPCR reactions:
# (§7) The RT-qPCR reaction was performed using a QuantStudio (ThermoFisher) under the following fast cycling conditions. […]
# MYB [2] = assay: Splicing RT-qPCR assay, MYB mRNA canonical junction (CJ) and alternative junction (AJ); details: Homo sapiens; for AC50: increase in AJ mRNA
# Summary of the method: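 A673 or K562 cells treated 24 h at 37 °C with 11-point 3-fold dilutions, top 10 uM, DMSO ≤0.25%. Lysates read by RT-qPCR for CJ and AJ isoforms, normalized to GAPDH, GUSB or PPIA; ΔΔCt vs DMSO converted to RQ, then percent response.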
# SMN2 = assay: Splicing RT-qPCR panel, SMN2 canonical junction (CJ) mRNA; details: Homo sapiens, RT-qPCR panel, canonical junction mRNA; compound concentration having 50% response in CJ decrease; read-out: SMN2 IC50 (decrease in CJ mRNA levels)
# Protocol: as §1, §2, §3, §4, §5, §6, §7
# Target C [3] = assay: Splicing RT-qPCR panel, Target C canonical junction (CJ) mRNA; details: Homo sapiens, RT-qPCR panel, canonical junction mRNA; compound concentration having 50% response in CJ decrease; read-out: Target C IC50 (decrease in CJ mRNA levels)
# Protocol: as §1, §2, §3, §4, §5, §6, §7
# MYB [4] = assay: HiBiT protein abundance assay, MYB; details: Homo sapiens, K562, 24 h, Table 13A, modified K562 cells
# Summary of the method: (§8)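 Tagged-target degradation assay: HiBiT-modified K562 cells treated 24 h with compound, 10 concentrations up to 10 μM final. Following lysis with LgBiT and substrate, luminescence gave normalized abundance; IC50 derived by logistic interpolation at 50%.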
# HTT [5] = assay: HiBiT protein abundance assay, HTT; details: Homo sapiens, K562, 24 h, Table 13A, modified K562 cells
# Summary of the method: as §8
# Target C [6] = assay: HiBiT protein abundance assay, Target C; details: Homo sapiens, K562, 24 h, Table 13A, modified K562 cells
# Summary of the method: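 Target tagged with HiBiT by knock-in; 24 h dosing, 10 μM top final in 3-fold steps. IC50 from 4PL fit of normalized luminescence.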
# [7] = 24 h, decrease in CJ mRNA, A673 or K562 cells, 24 hours treatment, RT-qPCR, read-out: HTT CJ IC50
# [8] = 24 h, A673 or K562 cells, 24 hours treatment, RT-qPCR
# [9] = RT-qPCR panel, canonical junction mRNA, compound concentration having 50% response in CJ decrease, read-out: HTT IC50 (decrease in CJ mRNA levels)
# [10] = 24 h, decrease in CJ mRNA, A673 or K562 cells, 24 hours treatment, RT-qPCR, read-out: MYB CJ IC50
# [11] = RT-qPCR panel, canonical junction mRNA, compound concentration having 50% response in CJ decrease, read-out: MYB IC50 (decrease in CJ mRNA levels)
IC50 (HTT [1]; [7]),IC50 (HTT [1]; [9]),IC50 (MYB [2]; [10]),IC50 (MYB [2]; [11]),IC50 (SMN2),IC50 (Target C [3]),IC50 (MYB [4]),IC50 (HTT [5]),IC50 (Target C [6]),Compound,AC50 (HTT [1]; [8]),AC50 (MYB [2]; [8])
> 10 µM,> 10 µM,> 10 µM,> 10 µM,> 10 µM,> 10 µM,> 10 µM,> 10 µM,> 10 µM,c1nc2c(-c3cn[nH]c3)ccc(-c3ccc(N4CCCC5(CNC5)C4)nn3)c2s1 [Compound 189],> 10 µM,> 10 µM
> 10 µM,> 10 µM,> 10 µM,> 10 µM,> 10 µM,> 10 µM,> 10 µM,> 10 µM,> 10 µM,c1nc2c(-c3cn[nH]c3)ccc(-c3ccc(N4CCC5(CCNCC5)C4)nn3)c2s1 [Compound 190],> 10 µM,> 10 µM
> 10 µM,> 10 µM,> 10 µM,> 10 µM,1 to 10 µM,> 10 µM,1 to 10 µM,1 to 10 µM,> 10 µM,c1nc2c(-c3cn[nH]c3)ccc(-c3ccc(N4CCC5(CCCNC5)C4)nn3)c2s1 (stereo not drawn) [Compound 191],> 10 µM,> 10 µM
> 10 µM,> 10 µM,> 10 µM,> 10 µM,> 10 µM,> 10 µM,> 10 µM,> 10 µM,> 10 µM,c1nc2c(-c3cn[nH]c3)ccc(-c3ccc(N4CCC5(CCNC5)CC4)nn3)c2s1 [Compound 192],> 10 µM,> 10 µM
> 10 µM,> 10 µM,> 10 µM,> 10 µM,> 10 µM,> 10 µM,1 to 10 µM,> 10 µM,> 10 µM,c1nc2c(-c3cn[nH]c3)ccc(-c3ccc(N4CCCC5(CCNC5)C4)nn3)c2s1 (stereo not drawn) [Compound 193],> 10 µM,> 10 µM
> 10 µM,> 10 µM,> 10 µM,> 10 µM,> 10 µM,> 10 µM,> 10 µM,> 10 µM,> 10 µM,c1nc2c(-c3cn[nH]c3)ccc(-c3ccc(NC4CNC4)nn3)c2s1 [Compound 196],> 10 µM,> 10 µM

# Further lines, the compound ahead of its results:
Compound,IC50 (HTT [1]; [7]),IC50 (HTT [1]; [9]),IC50 (MYB [2]; [10]),IC50 (MYB [2]; [11]),IC50 (SMN2),IC50 (Target C [3]),IC50 (MYB [4]),IC50 (HTT [5]),IC50 (Target C [6]),AC50 (HTT [1]; [8]),AC50 (MYB [2]; [8])
CN(c1ccc(-c2ccc(-c3cnn(C)c3)c3scnc23)nn1)C1CC(C)(C)NC(C)(C)C1 [Compound 175],> 10 µM,> 10 µM,> 10 µM,> 10 µM,1 to 10 µM,> 10 µM,1 to 10 µM,1 to 10 µM,1 to 10 µM,1 to 10 µM,1 to 10 µM
Cc1[nH]ncc1-c1ccc(-c2ccc(N(C)C3CC(C)(C)NC(C)(C)C3)nn2)c2ncsc12 [Compound 176],> 10 µM,> 10 µM,> 10 µM,> 10 µM,> 10 µM,> 10 µM,1 to 10 µM,1 to 10 µM,1 to 10 µM,> 10 µM,> 10 µM
COc1cc(-c2ccc(-c3ccc(N(C)C4CC(C)(C)NC(C)(C)C4)nn3)c3ncsc23)ccn1 [Compound 177],> 10 µM,> 10 µM,1 to 10 µM,1 to 10 µM,1 to 10 µM,> 10 µM,1 to 10 µM,1 to 10 µM,1 to 10 µM,> 10 µM,> 10 µM
CN(c1ccc(-c2ccc(-c3cnc(=O)[nH]c3)c3scnc23)nn1)C1CC(C)(C)NC(C)(C)C1 [Compound 179],0.1 to 1 µM,0.1 to 1 µM,0.1 to 1 µM,0.1 to 1 µM,0.1 to 1 µM,0.1 to 1 µM,0.1 to 1 µM,0.1 to 1 µM,0.1 to 1 µM,0.1 to 1 µM,0.1 to 1 µM
CN(c1ccc(-c2ccc(-c3ccc(=O)[nH]c3)c3scnc23)nn1)C1CC(C)(C)NC(C)(C)C1 [Compound 180],0.1 to 1 µM,0.1 to 1 µM,0.1 to 1 µM,0.1 to 1 µM,0.1 to 1 µM,0.1 to 1 µM,0.1 to 1 µM,0.1 to 1 µM,0.1 to 1 µM,0.1 to 1 µM,0.1 to 1 µM
CC1(C)CC(Oc2ccc(-c3ccc(-c4cn[nH]c4)c4ncsc34)nn2)CC(C)(C)N1 [Compound 181],> 10 µM,> 10 µM,> 10 µM,> 10 µM,< 0.1 µM,> 10 µM,< 0.1 µM,< 0.1 µM,< 0.1 µM,> 10 µM,> 10 µM
c1nc2c(-c3cn[nH]c3)ccc(-c3ccc(N4CCNCC4)nn3)c2s1 [Compound 185],> 10 µM,> 10 µM,1 to 10 µM,1 to 10 µM,0.1 to 1 µM,> 10 µM,1 to 10 µM,1 to 10 µM,1 to 10 µM,1 to 10 µM,> 10 µM
c1nc2c(-c3cn[nH]c3)ccc(-c3ccc(N4CC5(CCCNC5)C4)nn3)c2s1 [Compound 187],> 10 µM,> 10 µM,> 10 µM,> 10 µM,1 to 10 µM,> 10 µM,1 to 10 µM,1 to 10 µM,> 10 µM,> 10 µM,> 10 µM
c1nc2c(-c3cn[nH]c3)ccc(-c3ccc(N4CCC5(CC4)CNC5)nn3)c2s1 [Compound 188],> 10 µM,> 10 µM,> 10 µM,> 10 µM,> 10 µM,> 10 µM,> 10 µM,> 10 µM,> 10 µM,> 10 µM,> 10 µM
